Measured values published in patent publication US12433876B2, “Septin inhibitors for treatment of cancers” (UNIVERSITY OF ROCHESTER, priority 2019, dated 2025).

Molecular target: T1, septin-2 (Homo sapiens, UniProt Q15019)
T1 sequence (Q15019 1-361): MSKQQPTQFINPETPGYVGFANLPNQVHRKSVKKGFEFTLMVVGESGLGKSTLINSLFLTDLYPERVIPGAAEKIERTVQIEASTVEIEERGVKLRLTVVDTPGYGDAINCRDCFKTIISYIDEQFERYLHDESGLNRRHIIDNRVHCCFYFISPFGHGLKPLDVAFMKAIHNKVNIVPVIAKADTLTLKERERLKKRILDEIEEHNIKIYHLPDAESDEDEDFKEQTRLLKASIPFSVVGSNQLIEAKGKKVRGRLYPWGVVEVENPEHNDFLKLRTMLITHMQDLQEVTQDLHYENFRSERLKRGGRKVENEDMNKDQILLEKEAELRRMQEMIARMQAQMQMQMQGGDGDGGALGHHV
Assay: Confocal analysis of septin-2 filament structure
Format: cell-based
Conditions: 48 hours
Text: Cell Cycle Protein Expression. Cell Cycle Antibody Array (FullMoon BioSystems Inc, catalogue number: ACC:058), a high throughput ELISA based antibody array, designed for qualitative/semi-quantitative protein expression profiling was employed to investigate the protein changes after drug treatment. PANC-1 cells were lysed in buffer containing protease and phosphatase inhibitors (Cell Signaling, catalog number: 9803S). Total protein content was quantified by Bradford assay and equal amounts of proteins were analyzed in duplicate with arrays containing 4 to 6 spots for each of 60 probes (ACC058, Cell Cycle Antibody Array; Full Moon Biosystems, Sunnyvale, Calif.), according to manufacturer's instructions. After background correction, mean signal intensities were measured using FullMoon Inc's imaging services. Protein expressions in both the naïve and 328 treatment group was normalized to GAPDH signals. Confocal Analysis of Septin Disarrangement. To determine the impact of UR214-9 treatment on Septin-2 structure in cells, PANC-1 or JIMT-1 cells were seeded on glass slides and allowed to adhere overnight. The media was replaced with complete DMEM media supplemented with DMSO or UR214-9 (1 μM and 70 nM) and cells were incubated for 48 hours. Media was replaced again with new complete medium and fixed with neutral buffered formalin for 15 minutes at […]. Media was removed and cells were washed repeatedly with PBST (5×5 mL). The cells were stained with Septin-2 antibody (Sigma Aldrich, catalog number: HPA018481) in PSB overnight at […]. Media was removed again and cells were washed with 2×5 mL PBST. The cells were stained with fluorescence linked secondary antibody for 1 hr under dark. Slides were washed repeatedly in dark for 7×5 mL PBST, mounting medium containing DAPI (Vector labs) were applied and covered with glass slide. The slides were stored in dark at […] till analysis. Confocal images were obtained and processed essentially as published earlier (see Moore, R. G., Hill, E. K., Horan, T., Yano, N., Kim, K., MacLaughlan, S., Lambert-Messerlian, G., Tseng, Y. D., Padbury, J. F., Miller, M. C., Lange, T. S., Singh, R. K. Sci Rep. 4, 3574, 2014). Pancreatic tumor microarray (US Biomax, cat no: T142a) were deparaffinized, processed and stained with Septin-2 antibody (Sigma Aldrich, cat number: HPA018481) overnight, washed with PBST and incubated with source matched secondary (FITC) for an hour. Slide was washed in PBST (5×10 mL) for five minutes each. DAPI containing mounting media was applied and covered with a glass slide. Confocal images were acquired with Nikon C1si confocal microscope (Nikon Inc. Mellville N.Y.) using diode lasers 402, 488 and 561. […] Five cells were outlined and analyzed per field. […]

SMILES: O=C(Nc1ccccc1)Nc1ccnc(Cl)c1 [FCF, N-(2-chloro-4-pyridyl)-N′-phenylurea, reference compound]
- septin-2 filaments (BXPC-3 cells, 60 μM): strengthen the septin-2 filaments

SMILES: O=C(Nc1cc(Cl)nc(Cl)c1)Nc1cccc(SC(F)(F)F)c1F [UR214-9]
- septin-2 needles (JIMT-1, 1 μM): structural disruptions and relocation to nuclear periphery
- septin-2 needles (PANC-1, 1 uM): disarranged and translocated at the cell-surface
- septin-2 filaments (SKOV-3, 1 μM): complete disruption of septin-2 filaments
